How the values were obtained:
[1] = system: Mechanical hyperalgesia in rats with streptozotocin-induced diabetes (diabetic neuropathy); assay: Mechanical hyperalgesia in rats with streptozotocin-induced diabetes; type: in vivo, rat; settings: male CD rats, dose 10^-5 mol/kg, 2 h after treatment, vehicle 114 ± 2.7, normal animals 240±8.7 g
Experimental: 2. Mechanical Hyperalgesia in Rats with Streptozotocin-induced Diabetes
Male CD rats weighing 240-300 g on arrival were used.
The diabetic syndrome was induced by means of a single intraperitoneal (i.p.) injection of 80 mg/kg of streptozotocin dissolved in sterile physiological solution [Courteix C, Eschalier A, Lavarenne J. Streptozotocin-induced diabetic rats: behavioural evidence for a model of chronic pain. Pain, 1993; 53: 81-88; Bannon A W, Decker M W, Kim D J, Campbell J E, Arneric S P. ABT-594, a novel cholinergic channel modulator, is efficacious in nerve ligation and diabetic neuropathy models of neuropathic pain. Brain Res. 1998; 801:158-63].
At least three weeks after the injection of streptozotocin, rats with a level of glycemia≧300 mg/dl and with a response threshold to a mechanical nociceptive stimulus ≦120 g were selected. The glycemia levels were measured by means of a reflectometer, using reactive strips impregnated with glucose oxidase. The pain threshold was measured using an analgesimeter. By applying a gradual increase in pressure onto the dorsal area of the left hind paw of the rat, the instrument makes it possible to record the nocifensive response, expressed in grams, corresponding to the moment at which the animal retracts the paw.
Two hours after the treatment, the pain threshold measured in control animals was compared with that measured in animals treated with the test product (dose: 10^−5 mol/kg).
The control animals were treated with the same vehicle (water) used for administering the test products.

[2] = system: CFA-induced mechanical hyperalgesia in rats; assay: CFA-induced mechanical hyperalgesia in rats; type: in vivo, rat; settings: male CD rats, dose 10^-5 mol/kg, test 23 hours after injecting the CFA, 1 h after treatment; vehicle 120 ± 6.1, normal animals 155±2.1 g
Excerpt: 1. CFA-induced Mechanical Hyperalgesia in Rats
Male CD rats weighing 150-200 g on arrival were used.
By means of an analgesimeter, rats with a response threshold to a mechanical nociceptive stimulus in the range from 150 to 180 g were selected. By applying a gradual increase in pressure onto the dorsal region of the left hind paw of the rat, the instrument makes it possible to record the nocifensive response, expressed in grams, corresponding to the moment at which the animal retracts the paw [Randall L O and Selitto J J. A method for the measurement of analgesic activity on inflamed tissue. Arch. Int. Pharmacodyn. Ther. 1957; 111: 409-419].
The hyperalgesia was induced by unilateral injection of 150 μl of “Complete Freund's Adjuvant” (CFA) into the surface of the left hind paw of the animal [Andrew D, Greenspan J D. Mechanical and heat sensitization of cutaneous nociceptors after peripheral inflammation in the rat. J Neurophysiol. 1999; 82(5): 2649-2656; Hargreaves K, Dubner R, Brown R, Flores C, Joris J. A new and sensitive method for measuring thermal nociception in cutaneous hyperalgesia. Pain 1988; 32: 77-88].
The test compounds were tested (dose: 10^−5 mol/kg) by performing the test 23 hours after injecting the CFA.
One hour after the treatment, the pain threshold measured in control animals was compared with that measured in animals treated with the test product. The control animals were treated with the same vehicle (water) used for administering the test products.

Structure (SMILES)	Pain threshold (g) 2 h after the treatment [1]	Pain threshold (g) 1 h after the treatment [2]
CC(C)n1nc(C(=O)NCC2CCN(CC(=O)Nc3ccc(N)cc3)CC2)c2ccccc21.Cl.Cl [AF3R292, N3-((1-(2-oxo-2-((4-aminophenyl)amino)ethyl)-4-piperidyl)methyl)-1-(1-methylethyl)-1H-indazole-3-carboxamide dihydrochloride]	202 ± 8.7 g	154 ± 11.5 g
CC(C)n1nc(C(=O)NCC2CCN(CC(=O)Nc3ccc([N+](=O)[O-])cc3)CC2)c2ccccc21 [AF3R335, N3-((1-(2-oxo-2-((4-nitrophenyl)amino)ethyl)-4-piperidyl)methyl)-1-(1-methylethyl)-1H-indazole-3-carboxamide]	180 ± 13.0 g	168 ± 6.8 g
Cl.O=C(CN1CCC(CNC(=O)c2nn(Cc3ccccc3)c3ccccc23)CC1)Nc1ccccc1 [AF3R277, N3-((1-(2-oxo-2-(phenylamino)ethyl)-4-piperidyl)methyl)-1-benzyl-1H-indazole-3-carboxamide hydrochloride]	188 ± 11.0 g	170 ± 10.7 g
Cc1ccc2[nH]nc(C(=O)NCC3CCN(CC(=O)Nc4ccccc4)CC3)c2c1.Cl [AF3R295, 5-methyl-N-3-((1-(2-oxo-2-(phenylamino)ethyl)-4-piperidyl)methyl)-1H-indazole-3-carboxamide hydrochloride]	212 ± 14.6 g	202 ± 17.0 g
CC(C)n1nc(C(=O)NCC2CCN(CC(=O)Nc3ccc(O)cc3)CC2)c2ccccc21.Cl [AF3R278, N3-((1-(2-((4-hydroxyphenyl)amino)-2-oxoethyl)-4-piperidyl)methyl)-1-(1-methylethyl)-1H-indazole-3-arboxamide hydrochloride]	240 ± 16.5 g	164 ± 10.2 g
CC(C)n1nc(C(=O)NCC2CCN(CC(=O)Nc3ccc(N(C)C)cc3)CC2)c2ccccc21.Cl.Cl [AF3R301, N3-((1-(2-oxo-2-((4-(dimethylamino)phenyl)amino)ethyl)-4-piperidyl)methyl)-1-(1-methylethyl)-1H-indazole-3-carboxamide dihydrochloride]	201 ± 13.8 g	151 ± 10.7 g
CC(C)n1nc(C(=O)NCC2CCN(CC(=O)Nc3ccc(OCc4ccccc4)cc3)CC2)c2ccccc21 [AF3R331, N3-((1-(2-oxo-2-((4-((phenylmethyl)oxy)phenyl)amino)ethyl)-4-piperidyl)methyl)-1-(1-methylethyl)-1H-indazole-3-carboxamide]	192 ± 11.5 g	156 ± 8.7 g
Cc1ccc2c(c1)c(C(=O)NCC1CCN(CC(=O)Nc3ccccc3)CC1)nn2C(C)C.Cl [AF3R299, 5-methyl-N-3-((1-(2-oxo-2-(phenylamino)ethyl)-4-piperidyl)methy 1)-1-(1-methylethyl)-1H-indazole-3-carboxamide hydrochloride]	200 ± 10.7 g	167 ± 8.5 g
Cc1ccc(S(=O)(=O)O)cc1.O=C(CN1CCC(CNC(=O)c2n[nH]c3ccccc23)CC1)Nc1ccccc1 [AF3R276, N3-((1-(2-oxo-2-(phenylamino)ethyl)-4-piperidyl)methyl)-1H-indazole-3-carboxamide tosylate]	210 ± 10.9 g	185 ± 15.9 g
CC(C)n1nc(C(=O)NCC2CCN(CC(=O)Nc3ccccc3)CC2)c2ccccc21.Cl [AF3R172, N3-((1-(2-oxo-2-(phenylamino)ethyl)-4-piperidyl)methyl)-1-(1-methylethyl)-1H-indazole-3-carboxamide hydrochloride]	186 ± 13.0 g	175 ± 10.2 g
Cc1cccc(C)c1NC(=O)CN1CCC(CNC(=O)c2nn(C(C)C)c3ccccc23)CC1.O=C(O)C(=O)O [AF3R305, N3-((1-(2-oxo-2-((2,6-dimethylphenyl)amino)ethyl)-4-piperidyl)methyl)-1-(1-methylethyl)-1H-indazole-3-carboxamide oxalate]	189 ± 9.2 g	174 ± 8.4 g
